Data published in US11466028B2, “Fused 1,4-oxazepines as BET protein degraders” (THE REGENTS OF THE UNIVERSITY OF MICHIGAN, priority 2016, dated 2022).

How the values were obtained:
[1] = system: HL60; test: CellTiter-Glo cell viability, HL60 leukemia cell line; type: cell-based; details: Homo sapiens, HL-60, Table 5
Procedure: (§1) Cell growth inhibitory activity of representative Compounds of the Disclosure was determined using the CellTiter-Glo® Luminescent Cell Viability Assay. Cells were seeded in 384-well white opaque cell culture plates at a density of 2,000 cells/well with serially diluted compounds and incubated at 37° C. in an atmosphere of 95% air and 5% CO2 for 4 days. Cell viability was determined using the CellTiter-Glo® Luminescent Cell Viability Assay Kit (Promega, Madison, Wis.) according to the manufacture's instruction. Briefly, a volume of CellTiter-Glo® Reagent equal to the volume of cell culture medium was added to each well, and then the plates were incubated at room temperature for 10-20 minutes. The luminescent signal was measured using a Tecan Infinite M1000 multimode microplate reader (Tecan, Morrisville, N.C.). The half maximal inhibitory concentration (IC50) was calculated using the GraphPad Prism 5 software (GraphPad Software, La Jolla, Calif.).
(§2) Cpd. Nos. 18 and 19 were tested in various leukemia cell lines using the CellTiter-Glo® Luminescent Cell Viability Assay as described in Example 35.

[2] = system: AML5; test: CellTiter-Glo cell viability, AML5 leukemia cell line; type: cell-based; details: Table 5
Procedure: as §1, §2

[3] = system: AML3; test: CellTiter-Glo cell viability, AML3 leukemia cell line; type: cell-based; details: Table 5
Procedure: as §1, §2

[4] = system: KG1; test: CellTiter-Glo cell viability, KG1 leukemia cell line; type: cell-based; details: Homo sapiens, KG-1, Table 5
Procedure: as §1, §2

[5] = system: MDA-MB-474; test: WST-8 cell growth inhibition assay, MDA-MB-474; type: cell-based; details: WST-8, Table 6
Procedure: (§3) Cpd. Nos. 7 and 18 were tested in various triple-negative breast cancer cell lines using the WST-8 cell growth assay.

[6] = system: HBL100; test: WST-8 cell growth inhibition assay, HBL100; type: cell-based; details: Homo sapiens, HBL-100; WST-8, Table 6
Procedure: as §3

[7] = system: MDA-MB-453; test: WST-8 cell growth inhibition assay, MDA-MB-453; type: cell-based; details: Homo sapiens, WST-8, Table 6
Procedure: as §3

[8] = target: T1, BRD2 (Homo sapiens, UniProt P25440); test: Western blot, degradation of BRD2 in RS4;11 cells; type: cell-based; details: 2.5 h, as compared to Compound A, FIG. 1
T1 construct: endogenous in cells; host or cells: RS4;11 and MOLM-13 leukemia cells
Procedure: (§4) Cells were treated with compounds at the indicated concentrations for 2.5 h and 3 h, respectively, for RS4;11 (see FIG. 1) and MOLM-13 (see FIG. 2) cells. Compound A is ((S)-3-benzyl-6,9-dimethyl-2-((1-methyl-1H-pyrazol-4-yl)ethynyl)-4H,6H-thieno[2,3-e][1,2,4]triazolo[3,4-c][1,4]oxazepine). See Cpd. No. 85 of U.S. Appl. No. 62/295,271.
(§5) Collected cells were lysed in lysis buffer [1% CHAPS, 150 mM NaCl, 20 mM Tris-HCl, 1 mM. EDTA, 1 mM EGTA, and COMPLETE proteinase inhibitor (Roche)] for 30 minutes on ice. Protein concentrations were determined using the Bio-Rad Protein Assay Dye reagent. Whole tumor lysates (20 μg) were separated on a 4-20% Novex gels (Invitrogen). The separated proteins were transferred to a PVDF membrane (BIO-RAD) and the PVDF membrane was then blotted with 5% Blotting-Grade Blocker (BIO-RAD) for 1 hour at room temperature. The primary antibodies used were BRD4 rabbit polyclonal antibody [Bethyl Laboratories, Inc, cat #A301] and BRD2 antibody.
(§6) The BIO-RAD Clarity Western ECL Substrates (BIO-RAD) and HyBlot CL film (Denville) were used for signal development and detection using a SRX-101A tabletop processor (Konica Minolta).

[9] = target: T1, BRD2; test: Western blot, degradation of BRD2 in MOLM-13 cells; type: cell-based; details: 3 h, as compared to Compound A, FIG. 2
Procedure: as §4, §5, §6

[10] = target: T2, BRD4 (Homo sapiens, UniProt O60885); test: Western blot, degradation of BRD4 in MOLM-13 cells; type: cell-based; details: 3 h, as compared to Compound A, FIG. 2
T2 construct: Collected cells were lysed in lysis buffer; endogenous in cells; host or cells: RS4;11 and MOLM-13 leukemia cells
Procedure: as §4, §5, §6

[11] = system: RS4;11 xenograph tumors; test: RS4;11 xenograft model; type: in vivo, SCID mice; details: SCID mice, i.v. 5 mg/kg at days 1, 3, 5 per week for two weeks, FIG. 4
Procedure: Cpd. Nos. 7 and 11 were dissolved in 10% PCP [10% PEG400 (Sigma), 3% Cremophor (Sigma), and 87% PBS (Gibco)]. The pH of the drug solutions were checked before use and adjusted with 0.5N NaOH to be between pH 6.5 and 8.0 for IV (intravenous) administration.
RS4;11 cells were maintained at 37° C., 95% air, 5% carbon dioxide in Improved MEM (Richter's Mod.) supplemented with 10% Fetal Bovine Serum, 100 units/ml of penicillin and 100 units/ml of streptomycin (GIBCO™, Invitrogen Corp.) and passaged twice weekly.
Tumor cells for xenografts were harvested with Trypsin (0.05%)-EDTA (0.53 mM) (GIBCO™, Invitrogen Corp.), growth medium added and cells placed on ice. Cells were washed once with 1×PBS (GIBCO™, Invitrogen Corp.) and re-suspended in PBS. After washing in PBS, cells were re-suspended in an ice cold mixture of 1:1 PBS and Matrigel (BD Biosciences, Invitrogen Corp.) for a final Matrigel protein concentration of 5 mg/ml. Cells at 5×10^6 cells in 0.1 ml were injected subcutaneously (s.c.) into the flank region of each mouse using a 25 gauge needle. All tumors were inoculated into SCID mice (strain:236) C.B-17 SCID, Charles River.
The size of tumors growing in the mice was measured in two dimensions using calipers. Tumor volume (mm^3)═(A×B^2)/2 where A and B are the tumor length and width (in mm), respectively. During treatment, tumor volume and body weight were measured three times a week. After the treatment was stopped, tumor volume and body weight was measured at least once a week.
Tumors were not allowed to exceed 10% of the animals total body weight. If an animal had two or more tumors the total weight of all tumors were not allowed to exceed 10% of the animal's total body weight. At the end of the experimental period or when tumor size approached 10% of the total body weight, the animal was euthanized.
Before treatment began, tumors were allowed to grow to 100-200 mm^3 in volume, at which point the blood vessel supplies to the tumor should have been well established. Mice with tumors within acceptable size range were randomized into treatment groups of seven mice. Cpd. Nos. 7 and 11 were given i.v. at 10 mg/kg at days 1,3, and 5 per week for two weeks. The Control group received vehicle alone. Cpd. Nos. 16, 18, 22 and 48 were given i.v. at 5 mg/kg at days 1, 3, and 5 per week for two weeks. The Control group received vehicle alone.
Representative Compounds of the Disclosure were tested in the RS4;11 and other xenograph models using similar techniques. […] No. 22 in the MDA-MB-231 TNBC model.

T1 sequence (P25440 whole entry): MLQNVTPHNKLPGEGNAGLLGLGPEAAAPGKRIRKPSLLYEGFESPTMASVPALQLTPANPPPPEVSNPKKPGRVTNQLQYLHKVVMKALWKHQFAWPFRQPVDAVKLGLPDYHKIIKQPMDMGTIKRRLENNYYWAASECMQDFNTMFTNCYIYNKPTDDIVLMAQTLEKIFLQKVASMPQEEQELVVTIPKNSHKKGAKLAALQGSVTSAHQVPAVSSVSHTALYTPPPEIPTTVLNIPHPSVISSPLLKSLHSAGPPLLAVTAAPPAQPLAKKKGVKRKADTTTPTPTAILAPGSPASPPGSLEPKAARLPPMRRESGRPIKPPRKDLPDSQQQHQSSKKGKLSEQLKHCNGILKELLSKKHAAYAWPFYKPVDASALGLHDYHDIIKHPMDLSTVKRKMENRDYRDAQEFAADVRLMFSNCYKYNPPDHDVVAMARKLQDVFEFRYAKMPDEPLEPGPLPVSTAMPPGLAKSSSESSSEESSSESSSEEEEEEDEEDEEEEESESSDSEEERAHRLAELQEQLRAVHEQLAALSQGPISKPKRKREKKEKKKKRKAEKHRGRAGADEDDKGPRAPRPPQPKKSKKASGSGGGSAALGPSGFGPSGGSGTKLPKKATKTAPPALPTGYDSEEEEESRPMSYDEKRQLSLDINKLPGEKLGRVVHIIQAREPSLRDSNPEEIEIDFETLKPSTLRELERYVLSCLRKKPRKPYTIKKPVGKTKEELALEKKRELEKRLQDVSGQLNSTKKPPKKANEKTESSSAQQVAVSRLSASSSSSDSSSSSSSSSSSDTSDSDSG

IC50 [1]: 0.003 ± 0.001 nM
IC50 [2]: < 0.01 nM
IC50 [3]: 0.03 ± 0.006 nM
IC50 [4]: 0.047 ± 0.02 nM
IC50 [5]: 0.31 ± 0.01 nM
IC50 [7]: 0.25 ± 0.04 nM
degradation of BRD2 protein (Western blot) [8]: induce degradation
degradation of BRD2 protein (Western blot) [9]: induce degradation
degradation of BRD4 protein (Western blot) [10]: induce degradation
Compound: Cc1nnc2n1-c1sc(C#Cc3cnn(CCCC#Cc4cccc5c4CN(C4CCC(=O)NC4=O)C5=O)c3)c(Cc3ccccc3)c1CO[C@H]2C (stereo partly drawn) [Cpd. No. 18, 3-(4-(5-(4-(((S)-3-benzyl-6,9-dimethyl-4H,6H-thieno[2,3-e][1,2,4]triazolo[3,4-c][1,4]oxazepin-2-yl)ethynyl)-1H-pyrazol-1-yl)pent-1-yn-1-yl)-1-oxoisoindolin-2-yl) piperidine-2,6-dione]
IC50 [6]: 0.84 ± 0.14 nM
tumor regression in RS4;11 xenograph tumors [11]: induce tumor regression
